US20250027041A1, “COMPOSITION FOR INDUCING TRANSDIFFERENTIATION AND STEM CELLS TREATED THEREWITH” (YJ CERAPEUTICS INC., priority 2021, published 2025)

Assays:
AD-MSC = assay: Tuj1 immunochemical assay, AD-MSC; type: cell-based, human; details: 10, 20 or 30 μM, 5 days
Experimental: (§1) To determine whether transdifferentiation into ciNSC5, neural progenitor cells, occurred similarly even in MSCs of different origins when human UCB-MSCs were treated with YJ101, YJ102, or YJ103 for 5 days, the expression of neuronal markers in differentiated ciNSC5 was confirmed by immunochemical assay using MSCs from human adipose-derived mesenchymal stem cells (AD-MSCs), human bone marrow-derived mesenchymal stem cells ([…]) and human umbilical cord blood-derived mesenchymal stem cells (UCB-MSCs; Promo Cells). Specifically, AD-MSC (StemPro™ Human Adipose-Derived Stem Cell, Gibco, Passage #6) was incubated in a MesenPRO RS™ medium, BM-MSC (ATCC, Passage #6) was incubated in a Mesenchymal Stem Cell Basal Medium for Adipose, Umbilical and Bone Marrow-derived MSC (Cat. PCS-500-030, ATCC) medium, and UCB-MSC (Promo Cell, Passage #6) was incubated in a CellCor™ CD MSC (Cat. YSP001, Xell Therapeutics) medium, and then dispensed at 2.1×10^4 cells/well in a 12-well plate with an 18 mm cover glass (circular) (DMSO control group was dispensed at 3.5×10^3 cells/well). […] The culture medium was removed, washed with PBS, and then fixed with 4% paraformaldehyde at room temperature for 10 minutes. After washed three times with PBS, the cells were permeabilized with PBS-T containing 0.5% Triton X-100 for 10 minutes, washed with PBS-T three times for 10 minutes each, and then blocked with a blocking solution (PBS-T containing 5% BSA and 5% goat serum) for 1 hour. Thereafter, the cells were treated with anti-Tuj1 antibody (Cat. 801201, BioLegend) diluted 1/5000 in a blocking solution and incubated at 4° C. overnight. The next day, the cells were washed 10 times for 10 minutes each with PBS-T, and then treated with anti-mouse IgG-cy3 diluted 1/2000 in a blocking solution, and incubated for 1 hour in dark conditions. Next, the cells were washed 10 times for 10 minutes each with PBS-T, mounted with a mounting solution containing DAPI, and then observed with a confocal microscope.

CtBP1-CtBP2 = target: T1, CtBP1-CtBP2 (Homo sapiens, UniProt P56545+Q13363); assay: Immunoprecipitation, CtBP1-CtBP2 heteromerization in UCB-MSCs; type: cell-based; details: YJ102 20 μM; FLAG-CtBP2 + HA-CtBP1
T1 construct: expressed in transfected cells; host or cells: human UCB-MSC
Experimental: To determine the effect of YJ102 on the regulation of oligomerization of C-terminal Binding Proteins (CtBPs) in human UCB-MSCs, immunoprecipitation analysis was performed. Specifically, UCB-MSCs were dispensed at 4×10^5 cells/ml in a 60 mm culture dish, and the next day, FLAG-CtBP1, HA-CtBP1, FLAG-CtBP2, and HA-CtBP1 were transfected into cells using 4 μl jetPRIME. Thereafter, the cells were treated with YJ102 (stock 30 mM in DMSO) and MTOB (stock 300 mM in DMSO) at 20 μM and 300 μM, respectively (Table 1). After 48 hours of transfection, proteins were extracted in the same manner as in Example 1-1. Protein G agarose slurry was washed with PBS and blocked with 1 ml of 1% BSA, washed with PBS, and added with 1 μg of anti-HA antibody diluted with 1.5 ml of PBS and incubated at 4° C. for 2 hours. Thereafter, the cells were centrifuged at 3,000×g for 2 minutes to remove the supernatant, washed with an IP150 buffer two times, added with 1 μg of the protein extracted above, and incubated at 4° C. overnight. After incubation, the cells were centrifuged at 3,000×g for 2 minutes to remove the supernatant, washed with PBS three times, added with 50 μl of 1 mg/ml HA peptide diluted with PBS, and incubated at room temperature for 10 minutes. […]

UCB-MSC (Promo Cell) = assay: Tuj1 immunochemical assay, UCB-MSC (Promo Cell); type: cell-based, human; details: 10, 20 or 30 μM, 5 days
Experimental: as §1

CtBP2 = target: T2, CtBP2 (Homo sapiens, UniProt P56545); assay: DARTS assay, CtBP2; type: binding
T2 construct: expressed in transfected cells; host or cells: human UCB-MSC, lysate
Experimental: To identify proteins binding to compounds of the present invention, YJ101 (Chemical Formula 1), YJ102 (Chemical Formula 2), and YJ103 (Chemical Formula 3), in human umbilical cord blood-derived mesenchymal stem cells (UCB-MSCs), DART assay was performed. Specifically, UCB-MSCs (Kang Stem Cell, Passage #6) were dispensed into a 100 mm culture dish and incubated in a KSB-3 medium (Cat. K3901, Kang Stem Cell) containing 10% FBS (Cat. 16000044), and then collected and washed with PBS. Thereafter, the cells were added with an IP50 lysis buffer [50 mM Tris-HCl (pH 7.4), 150 mM NaCl, 2 mM MgCl2, and 0.1% NP40], sonicated, and centrifuged at 13,000×g for 10 minutes at 4° C. to obtain the supernatant. The supernatant was added with 1/10 volume of 10×TNC buffer [500 mM Tris-HCl (pH 8.0), 500 mM NaCl, and 100 mM CaCl2)], and protein concentration was measured using a Bradford method. Thereafter, 9 μl of a cell lysate and 1 μl of YJ101 (20 or M), YJ102 (20 or 30 μM), or YJ103 (20 or 40 μM) were mixed in a microcentrifuge tube and incubated at room temperature for 1 hour. A control group was treated with 1 μl of DMSO. After incubation, 1 μl (1 mg/ml) of Pronase (Cat. 10 165 921 001, Roche) diluted to 1 mg/ml using a 1×TNC buffer was added to the microcentrifuge tube and incubated at 37° C. for 15 minutes. After incubation, ⅕ volume of a 5×SDS-PAGE loading buffer was added, heated at 100° C. for 5 minutes, and then SDS-PAGE and Coomassie blue staining were performed. In addition, UCB-MSCs were dispensed at 4×10^5 cells/ml in a 60 mm culture dish, and after 24 hours, 4 μg of FLAG-CtBP1 or FLAG-CtBP2 DNA was transfected using 4 μl of jetPRIME. After 48 hours, the cells were collected, and proteins were extracted and quantified using the same method as above. DARTS assay was performed with the cell lysate of CtBP1 and Y102 labeled with FLAG, and Western blot assay was performed with a flag antibody (Cat. F3165, Sigma).

In the case of `CCc1ccc(N(C(=O)COC)c2nc3cc(Cl)ccc3o2)cc1` [YJ102], the “expression of Tuj1” value (AD-MSC) is reported as “increased”, the CtBP1-CtBP2 heteromerization (CtBP1-CtBP2) is reported as “had no effect” and the “expression of Tuj1” value (UCB-MSC (Promo Cell)) is reported as “increased”. For the same compound, the “overexpressed CtBP2 protection from degradation by pronase (DARTS)” value (CtBP2; FLAG-CtBP2 transfected UCB-MSC lysate) was “protected”, the “CtBP2 protection from degradation by pronase (DARTS)” value (CtBP2; endogenous CtBP2, UCB-MSC lysate) was “protected” and the “binding to CtBP2” value (CtBP2; human UCB-MSC) was “bound to CtBP1 and CtBP2”.
